# According to article PMC9505538, “P-Glycoprotein (MDR1/ABCB1) Restricts Brain Accumulation of the Novel EGFR Inhibitor EAI045 and Oral Elacridar Coadministration Enhances Its Brain Accumulation and Oral Exposure” (Pharmaceuticals, 2022):
# Key:
# [1] = 24 h pharmacokinetic pilot experiment in WT, Cyp3a-/- and Cyp3aXAV mice; format: in vivo, mice (Mus musculus)
# Description: To determine whether EAI045 and CYP3A interact in vivo, we carried out a 24 h pharmacokinetic pilot experiment using oral EAI045 at 20 mg/kg in female WT, Cyp3a knockout (Cyp3a^-/-), and transgenic Cyp3aXAV mice (these are humanized Cyp3a^-/- mice that express the human CYP3A4 in liver and small intestine). The plasma exposure and tissue distribution of EAI045 and PIA were measured. The tmax in all strains was around 5–30 min. […] In contrast, relative to Cyp3a^-/- or WT mice, the AUC0–30min and Cmax were not changed in Cyp3aXAV mice (Supplemental Figure S8A–C). Similar results were obtained for PIA (Supplemental Figure S8D–F). While not plotted separately, the PIA/EAI045 AUC ratios were also hardly changed between the three mouse strains.
# All samples were stored at −30 °C until analysis.
# Differences were considered statistically significant when p < 0.05. Data are presented as mean ± SD.
# [2] = target: T1, murine Abcg2 (Mus musculus, UniProt Q7TMS5); experiment: Transepithelial transport of EAI045, MDCK-II cells transduced with murine Abcg2; format: in vitro ADME; details: for efflux ratio r (relative transport ratio): EAI045 5 μM
# T1 construct: expressed in transfected cells; host or cells: MDCK-II cells, stably transduced, generated in the authors' institute
# T1 sequence (Q7TMS5 1-657): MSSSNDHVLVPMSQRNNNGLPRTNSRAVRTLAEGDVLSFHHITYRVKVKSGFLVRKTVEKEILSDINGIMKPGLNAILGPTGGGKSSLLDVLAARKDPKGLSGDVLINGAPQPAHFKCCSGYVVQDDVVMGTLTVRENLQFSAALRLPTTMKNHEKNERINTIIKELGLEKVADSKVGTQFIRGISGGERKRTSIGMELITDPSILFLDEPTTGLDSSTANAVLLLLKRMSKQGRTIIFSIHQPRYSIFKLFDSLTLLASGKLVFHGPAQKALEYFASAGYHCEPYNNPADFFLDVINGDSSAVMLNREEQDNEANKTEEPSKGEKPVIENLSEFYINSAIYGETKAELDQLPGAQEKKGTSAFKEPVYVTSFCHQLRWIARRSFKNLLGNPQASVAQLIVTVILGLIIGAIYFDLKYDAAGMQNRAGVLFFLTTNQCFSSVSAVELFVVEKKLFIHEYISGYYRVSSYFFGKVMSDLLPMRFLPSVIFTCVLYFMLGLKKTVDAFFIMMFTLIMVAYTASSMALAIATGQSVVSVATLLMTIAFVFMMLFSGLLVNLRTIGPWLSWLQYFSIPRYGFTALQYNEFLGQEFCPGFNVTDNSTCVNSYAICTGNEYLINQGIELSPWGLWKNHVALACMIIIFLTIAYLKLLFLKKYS
# Description: Transport of EAI045 (5 μM) across epithelia was tested using cell layers of Madin–Darby Canine Kidney (MDCK-II) cells and derived clones expressing hABCB1, hABCG2, or mAbcg2 cDNA. […] In cells overexpressing hABCB1, there was clear transport of EAI045 in the apical direction (r = 5.5, Figure 1C). […] To evaluate the interaction between hABCG2 and mAbcg2 and EAI045, zosuquidar (5 μM) was added to inhibit any endogenous canine ABCB1. In cells overexpressing hABCG2, the BA transport of EAI045 was somewhat increased relative to the AB transport, resulting in an efflux ratio of 1.4 (Figure 1E).
# Figure 1 In vitro transepithelial transport of EAI045 (5 μM) using MCDK-II parental cells (A,B) or transduced with human ABCB1 (C,D), human ABCG2 (E,F), or murine Abcg2 (G,H) cDNA. At t = 0 EAI045 was added in the donor compartment (either apical or basolateral). At 1, 2, and 4 h EAI045 was quantified in the acceptor compartment and the cumulative total transported amount per well was plotted (n = 3). Zosuquidar (5 μM) was added to inhibit the human and/or the endogenous ABCB1, while Ko143 (5 μM) was added to inhibit the human or murine ABCG2. r, relative transport ratio. […] Points, mean; bars, SD. TEXT PRINTED IN THE PICTURE: (A) no label printed: Parental: r = 1.7 | (B) no label printed: Parental + Zos.: r = 1.1 | (C) no label printed: hABCB1: r = 5.5 | (D) no label printed: hABCB1 + Zos.: r = 1.3 | (E) no label printed: hABCG2 + Zos.: r = 1.4 | (F) no label printed: hABCG2 + Zos. + Ko143: r = 1.1 | (G) no label printed: mAbcg2 + Zos.: r = 1.8 | (H) no label printed: mAbcg2 + Zos. + Ko143: r = 1.4
# Madin–Darby Canine Kidney (MDCK-II) cells (ECACC 00062107) stably transduced with human (h) ABCB1, hABCG2, or mouse (m) Abcg2 cDNA were generated in our institute between 1998 and 2005. […] In short, cells were allowed to grow an intact monolayer in 3 days, which was monitored with transepithelial electrical resistance (TEER) measurements, both before and after the transport phase. […] Proper functionality of these cell lines was monitored by continual testing with a variety of drug substrates.
# [3] = system: lung cancer driven by EGFR(L858R/T790M); details: cited from earlier work
smiles,measurement,setting,value
O=C(Nc1nccs1)C(c1cc(F)ccc1O)N1Cc2ccccc2C1=O (centres unmarked) [EAI045],"plasma exposure of EAI045 over 30 min (AUC0–30min), fold lower","[1]; Cyp3a-/- mice than WT mice, 20 mg/kg oral",1.6 fold
same,AUC0–30min and Cmax,"[1]; Cyp3aXAV mice relative to Cyp3a-/- or WT mice, 20 mg/kg oral",not changed
same,tmax,"[1]; female WT, Cyp3a-/- and Cyp3aXAV mice (all strains), EAI045 20 mg/kg oral",5 to 30 min
same,efflux ratio r (relative transport ratio),[2]; mAbcg2 + zosuquidar 5 μM,1.8
same,efflux ratio r (relative transport ratio),[2]; mAbcg2 + zosuquidar 5 μM + Ko143 5 μM,1.4
same,transport by mouse Abcg2,[2]; in vitro,at best slightly transported
same,"effect in L858R/T790M mutant mice, combination treatment",[3]; EAI045 combined with cetuximab,marked tumor regressions
same,"effect in L858R/T790M mutant mice, agent alone",[3]; single agent,very modest effect
